Test [1] addresses T1, kinase domain of human CSF1-R (Homo sapiens, UniProt P07333).
T1 construct: from codon I553 to Q961; made in house; host or cells: Sf9 insect cells (baculovirus)
T1 sequence (P07333 553-961): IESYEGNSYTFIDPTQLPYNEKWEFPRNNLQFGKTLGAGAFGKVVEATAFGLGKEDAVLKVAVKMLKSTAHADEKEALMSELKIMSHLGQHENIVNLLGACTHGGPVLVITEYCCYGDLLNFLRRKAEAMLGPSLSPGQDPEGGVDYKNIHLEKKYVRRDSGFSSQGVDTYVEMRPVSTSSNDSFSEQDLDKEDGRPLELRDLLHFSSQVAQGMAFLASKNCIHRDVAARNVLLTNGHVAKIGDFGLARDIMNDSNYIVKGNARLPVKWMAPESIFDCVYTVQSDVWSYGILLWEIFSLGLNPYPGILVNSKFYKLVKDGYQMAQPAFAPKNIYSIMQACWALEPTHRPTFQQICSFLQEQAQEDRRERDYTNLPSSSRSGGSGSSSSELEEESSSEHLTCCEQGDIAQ
The experiment in a line: Alphascreen protein tyrosine kinase assay, CSF-1R. The format is biochemical. Background: In Alpha technology, singlet oxygen from a donor bead excites a nearby acceptor bead.

Test [2] addresses T2, PDGFR β tyrosine kinase (Homo sapiens, UniProt P09619).
T2 construct: purchased Upstate Cell Signalling Solutions, CA, USA 14-463
In words: Alphascreen protein tyrosine kinase assay, PDGFRβ. The format is biochemical.

For test [3], the target named is T3, EphA2(h) (Homo sapiens, UniProt P29317).
T3 construct: purchased Upstate Biotechnology (Dundee, UK), KinaseProfiler service
The experiment in a line: KinaseProfiler assay (Upstate), EphA2. The format is biochemical. The method, then: (§1) Further enzyme assays were conducted at Upstate Biotechnology (Dundee, UK) in the KinaseProfiler™ Assay system.
(§2) The general protocol is as follows. All kinases are pre-diluted to a 10× working concentration prior to addition into the assay. The composition of the dilution buffer for the kinases is 20 mM MOPS pH 7.0, 1 mM EDTA, 0.1% β-mercaptoethanol, 0.01% Brij-35, 5% glycerol, 1 mg/ml BSA. All substrates are dissolved and diluted to working stocks in de-ionised water.
In a final reaction volume of 25 EphA2 (h) (5-10 mU) is incubated with 8 mM MOPS pH 7.0, 0.2 mM EDTA, 0.1 mg/ml poly(Glu, Tyr) 4:1, 10 mM MgAcetate and [γ-33P-ATP] (specific activity approx. 500 cpm/pmol, concentration as required). The reaction is initiated by the addition of the MgATP mix. After incubation for 40 minutes at room temperature, the reaction is stopped by the addition of 5 μl of a 3% phosphoric acid solution. 10 μl of the reaction is then spotted onto a Filtermat A and washed three times for 5 minutes in 75 mM phosphoric acid and once in methanol prior to drying and scintillation counting.

Test [4] deals with T4, PTK5(h) (Homo sapiens, UniProt P42685).
T4 construct: purchased Upstate Biotechnology (Dundee, UK), KinaseProfiler service
The experiment in a line: KinaseProfiler assay (Upstate), PTK5. The format is biochemical. Here is the method: as §1, §2

Test [5] has as its system mNFS-60. The experiment in a line: Cellular assay (Alamar Blue), mNFS-60 with human M-CSF. The format is cell-based. As to conditions: human M-CSF at 20 ng/ml, 72 hr. An outline of the steps:
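Compounds were added to cells 1 h before growth factor: human M-CSF 20 ng/ml for mNFS-60, mouse IL-3 5 ng/ml for Baf3-WT. After 72 h at 37 °C, 5% CO2, Alamar Blue was added for a further 4-8 h; fluorescence read at 544 ex/590 em.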
Background: Alamar Blue is a resazurin reagent that responds to reducing activity.

The target in test [6] is T5, Lck(h) (Homo sapiens, UniProt P06239).
T5 construct: purchased Upstate Biotechnology (Dundee, UK), KinaseProfiler service
In words: KinaseProfiler assay (Upstate), Lck. The format is biochemical. The method, then:
as §1, §2
In a final reaction volume of 25 μl, Lck (h) (5-10 mU) is incubated with 50 mM Tris pH 7.5, 0.1 mM EGTA, 0.1 mM Na3VO4, 250 μM […] (Cdc2 peptide), 10 mM MgAcetate and [γ-33P-ATP] (specific activity approx. 500 cpm/pmol, concentration as required). The reaction is initiated by the addition of the MgATP mix. After incubation for 40 minutes at room temperature, the reaction is stopped by the addition of 5 μl of a 3% phosphoric acid solution. 10 μl of the reaction is then spotted onto a P30 filtermat and washed three times for 5 minutes in 75 mM phosphoric acid and once in methanol prior to drying and scintillation counting.

IC50 and inhibition data for nine molecules are collected here from patent US9029386B2, “Pyridine derivatives useful as kinase inhibitors” (YM Biosciences Australia Pty Ltd, priority 2006, dated 2015).

Where only a bound is given, the exact number is not on record here.

T2 sequence (P09619 33-1106): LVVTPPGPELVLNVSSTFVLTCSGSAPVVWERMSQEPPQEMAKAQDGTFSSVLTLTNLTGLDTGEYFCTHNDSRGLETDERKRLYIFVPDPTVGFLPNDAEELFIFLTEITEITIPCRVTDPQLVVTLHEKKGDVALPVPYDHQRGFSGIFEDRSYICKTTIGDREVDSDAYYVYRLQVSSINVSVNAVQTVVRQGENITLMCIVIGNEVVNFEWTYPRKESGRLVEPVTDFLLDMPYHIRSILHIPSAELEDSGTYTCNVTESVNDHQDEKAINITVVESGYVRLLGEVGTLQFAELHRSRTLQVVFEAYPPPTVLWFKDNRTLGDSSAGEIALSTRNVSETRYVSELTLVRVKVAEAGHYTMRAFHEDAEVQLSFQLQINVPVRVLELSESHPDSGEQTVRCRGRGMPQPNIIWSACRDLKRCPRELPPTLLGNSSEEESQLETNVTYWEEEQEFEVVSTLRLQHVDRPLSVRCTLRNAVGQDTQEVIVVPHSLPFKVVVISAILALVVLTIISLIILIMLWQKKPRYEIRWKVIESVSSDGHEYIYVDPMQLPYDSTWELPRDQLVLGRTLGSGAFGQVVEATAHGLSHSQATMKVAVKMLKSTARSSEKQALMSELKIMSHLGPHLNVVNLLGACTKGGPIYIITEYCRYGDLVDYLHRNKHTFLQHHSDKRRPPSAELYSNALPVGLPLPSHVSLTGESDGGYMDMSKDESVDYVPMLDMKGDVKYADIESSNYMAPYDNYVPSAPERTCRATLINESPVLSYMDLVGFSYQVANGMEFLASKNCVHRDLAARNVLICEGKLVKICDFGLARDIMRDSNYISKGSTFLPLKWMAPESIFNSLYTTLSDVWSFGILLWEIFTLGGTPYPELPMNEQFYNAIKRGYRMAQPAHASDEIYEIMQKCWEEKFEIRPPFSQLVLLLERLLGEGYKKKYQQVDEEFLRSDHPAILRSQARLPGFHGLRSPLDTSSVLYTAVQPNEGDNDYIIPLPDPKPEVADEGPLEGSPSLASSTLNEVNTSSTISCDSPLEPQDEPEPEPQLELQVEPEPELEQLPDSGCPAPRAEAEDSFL
T3 sequence (P29317 24-976): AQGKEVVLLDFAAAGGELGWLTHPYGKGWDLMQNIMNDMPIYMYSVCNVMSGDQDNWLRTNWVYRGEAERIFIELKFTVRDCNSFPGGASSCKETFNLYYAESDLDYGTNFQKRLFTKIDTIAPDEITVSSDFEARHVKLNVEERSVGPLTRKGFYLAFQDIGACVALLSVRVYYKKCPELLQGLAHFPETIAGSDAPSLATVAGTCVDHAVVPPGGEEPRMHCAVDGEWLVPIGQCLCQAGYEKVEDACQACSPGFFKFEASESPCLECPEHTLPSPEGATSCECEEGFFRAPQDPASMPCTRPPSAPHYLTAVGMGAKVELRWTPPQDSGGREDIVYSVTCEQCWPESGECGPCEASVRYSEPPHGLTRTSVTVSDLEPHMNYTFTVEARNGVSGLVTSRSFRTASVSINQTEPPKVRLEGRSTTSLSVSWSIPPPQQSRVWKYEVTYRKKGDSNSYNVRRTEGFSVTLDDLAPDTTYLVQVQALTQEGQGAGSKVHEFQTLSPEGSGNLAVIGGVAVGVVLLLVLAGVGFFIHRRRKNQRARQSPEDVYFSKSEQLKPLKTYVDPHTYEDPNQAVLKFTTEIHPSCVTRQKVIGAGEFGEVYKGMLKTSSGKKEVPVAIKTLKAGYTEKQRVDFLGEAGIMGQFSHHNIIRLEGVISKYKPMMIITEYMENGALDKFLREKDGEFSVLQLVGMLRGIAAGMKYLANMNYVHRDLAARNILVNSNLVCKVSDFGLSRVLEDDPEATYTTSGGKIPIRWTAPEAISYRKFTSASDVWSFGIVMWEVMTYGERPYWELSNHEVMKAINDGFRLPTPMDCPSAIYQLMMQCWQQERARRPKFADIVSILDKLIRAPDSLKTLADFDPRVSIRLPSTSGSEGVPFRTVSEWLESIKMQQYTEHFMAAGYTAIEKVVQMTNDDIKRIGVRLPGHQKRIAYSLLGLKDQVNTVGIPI
T5 sequence (P06239 whole entry): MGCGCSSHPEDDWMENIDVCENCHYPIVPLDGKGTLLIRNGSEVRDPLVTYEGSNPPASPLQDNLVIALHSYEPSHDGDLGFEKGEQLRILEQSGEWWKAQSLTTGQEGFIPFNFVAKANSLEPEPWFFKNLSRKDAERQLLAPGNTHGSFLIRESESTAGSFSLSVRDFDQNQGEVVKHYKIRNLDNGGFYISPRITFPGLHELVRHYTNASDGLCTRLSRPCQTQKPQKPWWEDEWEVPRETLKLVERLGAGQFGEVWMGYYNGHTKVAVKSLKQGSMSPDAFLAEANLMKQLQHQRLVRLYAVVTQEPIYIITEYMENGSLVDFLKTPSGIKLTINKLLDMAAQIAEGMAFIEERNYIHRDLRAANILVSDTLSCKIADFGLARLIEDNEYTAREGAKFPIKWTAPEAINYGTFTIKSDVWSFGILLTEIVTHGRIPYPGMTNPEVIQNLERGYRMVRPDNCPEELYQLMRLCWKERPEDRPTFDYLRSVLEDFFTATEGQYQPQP
T4 sequence (P42685 whole entry): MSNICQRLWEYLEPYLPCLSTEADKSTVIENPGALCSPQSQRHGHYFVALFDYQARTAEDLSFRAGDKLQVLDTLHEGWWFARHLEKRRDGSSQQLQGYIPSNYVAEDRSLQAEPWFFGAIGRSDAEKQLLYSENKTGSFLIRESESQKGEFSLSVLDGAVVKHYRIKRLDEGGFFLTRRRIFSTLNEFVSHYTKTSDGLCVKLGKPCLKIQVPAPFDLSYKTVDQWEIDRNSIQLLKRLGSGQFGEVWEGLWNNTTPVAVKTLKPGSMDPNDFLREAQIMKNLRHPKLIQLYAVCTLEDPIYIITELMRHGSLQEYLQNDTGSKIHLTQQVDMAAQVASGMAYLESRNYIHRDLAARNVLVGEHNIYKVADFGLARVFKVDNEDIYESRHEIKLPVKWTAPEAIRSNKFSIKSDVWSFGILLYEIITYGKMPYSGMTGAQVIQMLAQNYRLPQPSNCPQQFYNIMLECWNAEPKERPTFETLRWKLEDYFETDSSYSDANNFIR

By IC50 is commonly meant the concentration that gives 50% inhibition. A lower IC50 goes with greater potency. Usually inhibition stands for the drop in the measured response relative to a control, in per cent. Turning to `Cc1cccc(C(=O)Nc2cccc([C@H](C)Nc3cncc(-n4ccnc4)n3)c2)c1` [Compound 143, (S)—N-(3-(1-(6-(1H-imidazol-1-yl)pyrazin-2-ylamino)ethyl)phenyl)-3-methylbenzamide], the IC50 in test [1] is < 100 nM; in test [2], < 100 nM; in test [5], < 200 nM. The inhibition at 0.1 µM in test [3] was found to be 80%; in test [4] it was 88%; in test [6], 24%. Besides, the inhibition at 1 µM was found to be 99% in test [3], 96% in test [4] and 77% in test [6].

`C[C@H](Nc1cncc(-c2cccc(N3CCOCC3)c2)n1)c1cccc(NC(=O)c2cccc(C(F)(F)F)c2)c1` [Compound 149]: the 50% inhibitory concentration (IC50) was < 100 nM in test [1], < 100 nM in test [2] and < 1000 nM in test [5]. Also, the inhibition at 0.1 µM in test [3] was 96%; in test [4], 95%; in test [6], 68%. Also, the inhibition at 1 µM in test [3] came out at 102%; in test [4] it was 100%; in test [6], 95%.

`C[C@H](Nc1cncc(Cl)n1)c1cccc(NC(=O)c2cccc(C(F)(F)F)c2)c1` [Compound 114, (S)—N-(3-(1-(6-chloropyrazin-2-ylamino)ethyl)phenyl)-3-(trifluoromethyl)benzamide]: the IC50 was < 100 nM in test [2] and < 1000 nM in test [5]. For the same molecule, the inhibition at 0.1 µM in test [3] was determined as 96%; in test [4] it was 98%; in test [6], 53%. Also, the inhibition at 1 µM in test [3] turned out to be 101%; in test [4], 100%; in test [6] it was 90%.

As for `Cc1cccc(C(=O)Nc2cccc([C@H](C)Nc3cncc(-c4cccc(N5CCOCC5)c4)n3)c2)c1` [Compound 147], the IC50 was < 100 nM in test [1], < 100 nM in test [2] and < 200 nM in test [5]. Moreover, the figures for the inhibition at 0.1 µM in test [3], in test [4] and in test [6] were 97%, 94% and 50%, respectively. The inhibition at 1 µM in test [3] is 102%; in test [4], 100%; in test [6], 89%.

For `Cc1cccc(C(=O)Nc2cccc([C@H](C)Nc3cncc(-c4ccc(S(N)(=O)=O)cc4)n3)c2)c1` [Compound 77], the IC50 in test [1] is < 100 nM; in test [2], < 1000 nM; in test [5], < 200 nM. The inhibition at 0.1 µM in test [3] came to 87%; in test [4] it was 91%; in test [6], 45%. In addition, the inhibition at 1 µM in test [3] worked out at 102%; in test [4], 99%; in test [6] it was 84%.

Consider `Cc1cccc(C(=O)Nc2cccc([C@H](C)Nc3cncc(C(N)=O)n3)c2)c1` [Compound 133, (S)-6-(1-(3-(3-methylbenzamido)phenyl)ethylamino)pyrazine-2-carboxamide], for which the figures for the half-inhibitory concentration (IC50) in test [1], in test [2] and in test [5] were < 100 nM, < 100 nM and < 200 nM, respectively. Further, the inhibition at 0.1 µM in test [3] amounted to 69%; in test [4], 80%; in test [6], 0%. In addition, the inhibition at 1 µM came to 99% in test [3], 98% in test [4] and 16% in test [6].

For the molecule `C[C@H](Nc1cncc(-c2ccc(N3CCN(C)CC3)cc2)n1)c1cccc(NC(=O)c2cccc(C(F)(F)F)c2)c1` [Compound 148], the values for the IC50 in test [1], in test [2] and in test [5] were < 100 nM, < 100 nM and < 200 nM, respectively. Further, the figures for the inhibition at 0.1 µM in test [3], in test [4] and in test [6] were 93%, 99% and 95%, respectively. In addition, the inhibition at 1 µM is 102% in test [3], 100% in test [4] and 97% in test [6].

As for `Cc1cccc(C(=O)Nc2cccc([C@H](C)Nc3cncc(-c4ccc(N5CCN(C)CC5)cc4)n3)c2)c1` [Compound 129], the half-maximal inhibitory concentration (IC50) is < 100 nM in test [1], < 100 nM in test [2] and < 200 nM in test [5]. For the same molecule, the inhibition at 0.1 µM was determined as 24% in test [3], 99% in test [4] and 73% in test [6]. For the same molecule, the inhibition at 1 µM worked out at 93% in test [3], 100% in test [4] and 96% in test [6].

On to `Cc1cccc(C(=O)Nc2ccc(C)c([C@H](C)Nc3cncc(Cl)n3)c2)c1` [Compound 168], for which the inhibition at 0.1 µM worked out at 102% in test [3], 100% in test [4] and 85% in test [6]. Besides, the inhibition at 1 µM in test [3] is 103%; in test [4] it was 100%; in test [6] it was 98%.
